Data: PMC11003488 (Journal of Enzyme Inhibition and Medicinal Chemistry, 2023)

Key:
Assay type in all cases: cell-based
[1] = tested on: CCRF-CEM; experiment: NCI-60 SRB growth inhibition, one-dose and five-dose; conditions: Homo sapiens, read-out: percent growth inhibition
[2] = tested on: HL-60(TB); experiment: cells; conditions: Homo sapiens, HL-60, read-out: percent growth inhibition
[3] = tested on: K-562; experiment: NCI-60 SRB growth inhibition, one-dose and five-dose; conditions: Homo sapiens, K562, read-out: percent growth inhibition
[4] = tested on: MOLT-4; experiment: as above; conditions: Homo sapiens, MOLT-4, read-out: percent growth inhibition
[5] = tested on: RPMI-8226; experiment: as above; conditions: Homo sapiens, RPMI-8226, read-out: percent growth inhibition
[6] = tested on: EKVX; experiment: as above; conditions: Homo sapiens, read-out: percent growth inhibition
[7] = tested on: NCI-H226; experiment: as above; conditions: Homo sapiens, NCI-H226, read-out: percent growth inhibition
[8] = tested on: NCI-H23; experiment: as above; conditions: Homo sapiens, NCI-H23, read-out: percent growth inhibition
[9] = tested on: NCI-H322M; experiment: as above; conditions: Homo sapiens, read-out: percent growth inhibition
[10] = tested on: NCI-H522; experiment: as above; conditions: Homo sapiens, NCI-H522, read-out: percent growth inhibition
[11] = tested on: COLO 205; experiment: as above; conditions: Homo sapiens, COLO 205, read-out: percent growth inhibition
[12] = tested on: HCC-2998; experiment: as above; conditions: Homo sapiens, HCC 2998, read-out: percent growth inhibition
[13] = tested on: HCT-15; experiment: as above; conditions: Homo sapiens, HCT-15, read-out: percent growth inhibition
[14] = tested on: HT29; experiment: as above; conditions: Homo sapiens, HT-29, read-out: percent growth inhibition
[15] = tested on: KM12; experiment: as above; conditions: Homo sapiens, KM12, read-out: percent growth inhibition
[16] = tested on: SF-268; experiment: as above; conditions: Homo sapiens, SF-268, read-out: percent growth inhibition
[17] = tested on: SNB-19; experiment: as above; conditions: Homo sapiens, SNB-19, read-out: percent growth inhibition
[18] = tested on: SNB-75; experiment: as above; conditions: Homo sapiens, SNB-75, read-out: percent growth inhibition
[19] = tested on: U251; experiment: as above; conditions: Homo sapiens, U-251, read-out: percent growth inhibition
[20] = tested on: LOX IMVI; experiment: as above; conditions: Homo sapiens, read-out: percent growth inhibition
[21] = tested on: MALME-3M; experiment: as above; conditions: Homo sapiens, read-out: percent growth inhibition
[22] = tested on: M14; experiment: as above; conditions: Homo sapiens, M14, read-out: percent growth inhibition
[23] = tested on: MDA-MB-435; experiment: as above; conditions: Homo sapiens, MDA-MB-435, read-out: percent growth inhibition
[24] = tested on: SK-MEL-2; experiment: as above; conditions: Homo sapiens, SK-MEL-2, read-out: percent growth inhibition
[25] = tested on: SK-MEL-28; experiment: as above; conditions: Homo sapiens, SK-MEL-28, read-out: percent growth inhibition
[26] = tested on: UACC-257; experiment: as above; conditions: Homo sapiens, UACC-257, read-out: percent growth inhibition
[27] = tested on: IGROV1; experiment: as above; conditions: Homo sapiens, IGROV-1, read-out: percent growth inhibition
[28] = tested on: OVCAR-3; experiment: as above; conditions: Homo sapiens, OVCAR-3, read-out: percent growth inhibition
[29] = tested on: OVCAR-4; experiment: as above; conditions: Homo sapiens, OVCAR-4, read-out: percent growth inhibition
[30] = tested on: OVCAR-8; experiment: as above; conditions: Homo sapiens, OVCAR-8, read-out: percent growth inhibition
[31] = tested on: NCI/ADR-RES; experiment: as above; conditions: Homo sapiens, read-out: percent growth inhibition
[32] = tested on: 786-0; experiment: as above; conditions: Homo sapiens, 786-0, read-out: percent growth inhibition
[33] = tested on: A498; experiment: as above; conditions: Homo sapiens, A498, read-out: percent growth inhibition
[34] = tested on: ACHN; experiment: as above; conditions: Homo sapiens, read-out: percent growth inhibition
[35] = tested on: CAKI-1; experiment: as above; conditions: Homo sapiens, CAKI-1, read-out: percent growth inhibition
[36] = tested on: RXF 393; experiment: as above; conditions: Homo sapiens, RXF 393, read-out: percent growth inhibition
[37] = tested on: SN12C; experiment: as above; conditions: Homo sapiens, read-out: percent growth inhibition
[38] = tested on: PC-3; experiment: as above; conditions: Homo sapiens, PC-3, read-out: percent growth inhibition
[39] = tested on: MCF7; experiment: as above; conditions: Homo sapiens, MCF7, read-out: percent growth inhibition
[40] = tested on: HS 578 T; experiment: as above; conditions: Homo sapiens, read-out: percent growth inhibition
[41] = tested on: T-47D; experiment: as above; conditions: Homo sapiens, T47D, read-out: percent growth inhibition
[42] = tested on: MDA-MB-468; experiment: as above; conditions: Homo sapiens, MDA-MB-468, read-out: percent growth inhibition
[43] = tested on: SR; experiment: as above; conditions: Homo sapiens, read-out: percent growth inhibition

CC(=O)Nc1ccc(/C=C/C(=O)c2cccc(NCc3ccc4oc(=O)ccc4c3)c2)cc1 [Compound 5k, (E)-N-(4–(3-oxo-3–(3-(((2-oxo-2H-chromen-6-yl)methyl)amino)phenyl)prop-1-en-1-yl)phenyl)acetamide]
inhibition at 10 µM [1]: 87.9% | inhibition at 10 µM [2]: 59% | inhibition at 10 µM [3]: 93.3% | inhibition at 10 µM [4]: 84.2% | inhibition at 10 µM [5]: 80.5% | inhibition at 10 µM [6]: 64.5% | inhibition at 10 µM [7]: 35.7% | inhibition at 10 µM [8]: 38.6% | inhibition at 10 µM [9]: 15.3% | inhibition at 10 µM [10]: 36.3% | inhibition at 10 µM [11]: -13.2% | inhibition at 10 µM [12]: 10% | inhibition at 10 µM [13]: 50.7% | inhibition at 10 µM [14]: 15.6% | inhibition at 10 µM [15]: 34.4% | inhibition at 10 µM [16]: 18.2% | inhibition at 10 µM [17]: 38.8% | inhibition at 10 µM [18]: 25.4% | inhibition at 10 µM [19]: 49% | inhibition at 10 µM [20]: 57.8% | inhibition at 10 µM [21]: 37.8% | inhibition at 10 µM [22]: 30.6% | inhibition at 10 µM [23]: 22.1% | inhibition at 10 µM [24]: 35.7% | inhibition at 10 µM [25]: 21.2% | inhibition at 10 µM [26]: 45.1% | inhibition at 10 µM [27]: 23.3% | inhibition at 10 µM [28]: 41.7% | inhibition at 10 µM [29]: 43.9% | inhibition at 10 µM [30]: 34.9% | inhibition at 10 µM [31]: 68.9% | inhibition at 10 µM [32]: 24.2% | inhibition at 10 µM [33]: 20.4% | inhibition at 10 µM [34]: 34.7% | inhibition at 10 µM [35]: 37.7% | inhibition at 10 µM [36]: 18% | inhibition at 10 µM [37]: 29.5% | inhibition at 10 µM [38]: 27.6% | inhibition at 10 µM [39]: 73.6% | inhibition at 10 µM [40]: 22.1% | inhibition at 10 µM [41]: 66% | inhibition at 10 µM [42]: 72.9%

CC(=O)Nc1ccc(CNc2cccc(C(=O)/C=C/c3c[nH]cn3)c2)cc1 [Compound 5l, (E)-N-(4-(((3–(3-(1H-imidazol-4-yl)acryloyl)phenyl)amino)methyl)phenyl)acetamide]
inhibition at 10 µM [1]: 98% | inhibition at 10 µM [2]: 65.2% | inhibition at 10 µM [3]: 80.8% | inhibition at 10 µM [4]: 40.3% | inhibition at 10 µM [5]: 38% | inhibition at 10 µM [6]: 24.8% | inhibition at 10 µM [7]: 21.7% | inhibition at 10 µM [8]: 11.5% | inhibition at 10 µM [9]: 12.8% | inhibition at 10 µM [10]: 64.2% | inhibition at 10 µM [11]: -8.23% | inhibition at 10 µM [12]: -2.31% | inhibition at 10 µM [13]: 14.3% | inhibition at 10 µM [14]: 8.22% | inhibition at 10 µM [15]: 43.6% | inhibition at 10 µM [16]: 19.4% | inhibition at 10 µM [17]: 26.6% | inhibition at 10 µM [18]: 11.7% | inhibition at 10 µM [19]: 48.3% | inhibition at 10 µM [20]: 45.3% | inhibition at 10 µM [21]: 26.4% | inhibition at 10 µM [22]: 13.5% | inhibition at 10 µM [23]: 11% | inhibition at 10 µM [24]: 12.8% | inhibition at 10 µM [25]: 13.4% | inhibition at 10 µM [26]: 19.3% | inhibition at 10 µM [27]: 8.09% | inhibition at 10 µM [28]: 33.8% | inhibition at 10 µM [29]: 17.3% | inhibition at 10 µM [30]: 8.86% | inhibition at 10 µM [31]: -1.58% | inhibition at 10 µM [32]: 11.6% | inhibition at 10 µM [33]: 11.1% | inhibition at 10 µM [34]: 15.4% | inhibition at 10 µM [35]: 12.4% | inhibition at 10 µM [36]: 37.7% | inhibition at 10 µM [37]: 19.8% | inhibition at 10 µM [38]: 7.64% | inhibition at 10 µM [39]: 81.8% | inhibition at 10 µM [40]: 7.6% | inhibition at 10 µM [41]: 56.9% | inhibition at 10 µM [42]: 84%

O=C(/C=C/c1c[nH]cn1)c1cccc(NCc2ccc(CO)cc2)c1 [Compound 5m, (E)-1–(3-((4-(hydroxymethyl)benzyl)amino)phenyl)-3-(1H-imidazol-4-yl)prop-2-en-1-one]
inhibition at 10 µM [1]: 45.6% | inhibition at 10 µM [2]: 65.9% | inhibition at 10 µM [3]: 80.4% | inhibition at 10 µM [4]: 28.5% | inhibition at 10 µM [5]: 63.3% | inhibition at 10 µM [43]: 92.9% | inhibition at 10 µM [6]: 32.2% | inhibition at 10 µM [7]: 14.6% | inhibition at 10 µM [8]: 18.6% | inhibition at 10 µM [9]: 13% | inhibition at 10 µM [10]: 89.4% | inhibition at 10 µM [11]: -0.06% | inhibition at 10 µM [12]: -0.68% | inhibition at 10 µM [13]: 21.5% | inhibition at 10 µM [14]: 24.9% | inhibition at 10 µM [15]: 9.57% | inhibition at 10 µM [16]: 8.96% | inhibition at 10 µM [17]: 16.8% | inhibition at 10 µM [19]: 56% | inhibition at 10 µM [20]: 58.6% | inhibition at 10 µM [21]: 23.1% | inhibition at 10 µM [22]: 15% | inhibition at 10 µM [23]: 8.36% | inhibition at 10 µM [25]: 6.66% | inhibition at 10 µM [26]: 22.5% | inhibition at 10 µM [27]: 9.93% | inhibition at 10 µM [28]: 5.3% | inhibition at 10 µM [29]: 22% | inhibition at 10 µM [30]: 15.4% | inhibition at 10 µM [31]: 6.75% | inhibition at 10 µM [32]: 11.7% | inhibition at 10 µM [33]: 2.28% | inhibition at 10 µM [34]: 16.6% | inhibition at 10 µM [35]: 8.35% | inhibition at 10 µM [36]: 38.3% | inhibition at 10 µM [37]: 19.9% | inhibition at 10 µM [38]: 11.3% | inhibition at 10 µM [39]: 66% | inhibition at 10 µM [40]: 4.31% | inhibition at 10 µM [41]: 47.8% | inhibition at 10 µM [42]: 80.5%

O=C(/C=C/c1c[nH]cn1)c1cccc(NCc2ccc3oc(=O)ccc3c2)c1 [Compound 5n, (E)-6-(((3–(3-(1H-imidazol-4-yl)acryloyl)phenyl)amino)methyl)-2H-chromen-2-one]
inhibition at 10 µM [1]: 62.1% | inhibition at 10 µM [2]: 85.4% | inhibition at 10 µM [3]: 87.2% | inhibition at 10 µM [4]: 61.1% | inhibition at 10 µM [5]: 86.9% | inhibition at 10 µM [43]: 98.1% | inhibition at 10 µM [6]: 45.6% | inhibition at 10 µM [7]: 28.2% | inhibition at 10 µM [8]: 28.3% | inhibition at 10 µM [9]: 18.1% | inhibition at 10 µM [10]: 138% | inhibition at 10 µM [11]: 29.2% | inhibition at 10 µM [12]: 16.8% | inhibition at 10 µM [13]: 33.9% | inhibition at 10 µM [14]: 63.2% | inhibition at 10 µM [15]: 25.1% | inhibition at 10 µM [16]: 10.9% | inhibition at 10 µM [17]: 25.7% | inhibition at 10 µM [19]: 68.2% | inhibition at 10 µM [20]: 75.9% | inhibition at 10 µM [21]: 37.8% | inhibition at 10 µM [22]: 24.5% | inhibition at 10 µM [23]: 14.5% | inhibition at 10 µM [25]: 13.3% | inhibition at 10 µM [26]: 43.6% | inhibition at 10 µM [27]: 16.6% | inhibition at 10 µM [28]: 13.8% | inhibition at 10 µM [29]: 39.2% | inhibition at 10 µM [30]: 32.5% | inhibition at 10 µM [31]: 10.6% | inhibition at 10 µM [32]: 31.8% | inhibition at 10 µM [33]: 4.82% | inhibition at 10 µM [34]: 24.8% | inhibition at 10 µM [35]: 8.01% | inhibition at 10 µM [36]: 38.5% | inhibition at 10 µM [37]: 29.8% | inhibition at 10 µM [38]: 17.1% | inhibition at 10 µM [39]: 90.1% | inhibition at 10 µM [40]: 13.6% | inhibition at 10 µM [41]: 54% | inhibition at 10 µM [42]: 83.2%
